According to patent US20070059299A1, “S-adenosyl methionine decarboxylase inhibition for the treatment of a herpes simplex virus infection” (Institut National de la Sante et de la Recherche Medicale …, priority 2002, published 2007):
Where two headings read alike, the source gives them in different places.

What was measured:
[1] = system: acyclovir-susceptible reference strain SC16; assay: Antiviral susceptibility testing by ELISA on HEp-2 cells, strain SC16; type: cell-based, HSV 1
Experimental: (§1) Three HSV 1 reference strains were tested : SC16 (acyclovir-susceptible reference strain; (Hill et al., 1975)), DM21 (acyclovir-resistant reference strain derived from SC16; (Efstathiou et al., 1989)) and TP 2.5 (foscarnet-resistant reference strain derived from SC16; (Larder and Darby, 1985)). Antiviral assays were performed in duplicate on HEp-2 cells seeded in 96 wells microplates. Dilutions of virus and drugs were prepared in E-MEM without FCS. Cells were first treated for 24 hours with MGBG using a series of 6 twofold serial dilutions from 12.5 to 400 μM. Infection was then achieved with 5 tenfold dilutions of cell-associated virus (10^−1 to 10^−5). Each dilution was incubated with a series of 6 concentrations of each antiviral drug (from 12.5 to 400 μM in twofold dilutions for MGBG, from 0.16 to 500 μM in fivefold dilutions for acyclovir and from 31 to 1000 μM in twofold dilutions for foscarnet). […] After incubation at 36° C. with 5% CO2 for 24 hours post-infection, medium was replaced with freshly prepared dilutions of MGBG. Viral multiplication was checked 24 hours afterwards by an ELISA (Morfin et al., 1999), using a rabbit monoclonal anti-HSV 1 antibody (BO 114, Dako) and a protein A peroxidase-conjugated (BioRad). The substrate, 2,2′-azino-di(3-ethyl-benzthiazoline) sulfonic acid (ABTS) diluted in ABTS buffer (Boehringer, Mannheim), was added to each well. After 30 min at room temperature, the plates were briefly agitated and optical densities were read at 405 nm with a multichannel spectrophotomoter (Titertek-Multiskan). Optical density values were used with the Biolise program (Life Sciences International) to calculate the concentration of the drug causing a 50% inhibition of viral replication (IC50) by logistic regression analysis.
(§2) The capacity of MGBG to preclude infection of three HSV-1 acyclovir and/or foscarnet resistant strains was tested. […] The ED values were determined.

[2] = system: acyclovir-resistant reference strain DM21; assay: Antiviral susceptibility testing by ELISA on HEp-2 cells, strain DM21; type: cell-based, HSV 1; conditions: for IC50: HEp-2 cells, ELISA, median of at least three assays, drugs diluted in μM, read-out: Susceptibility of strain DM21 (concentration causing 50% inhibition of viral replication, IC50), median
Experimental: as §1
The capacity of MGBG to preclude infection of three HSV-1 acyclovir and/or foscarnet resistant strains was tested. The reference strains used in this study were the SC16 acyclovir-susceptible reference strain, the DM21 acyclovir-resistant reference strain derived from SC16 and the TP 2.5 foscarnet-resistant reference strain derived from SC16 (Efstathiou et al., 1989; Hill et al., 1975; Larder and Darby, 1985). In each experiment, dose response curves were constructed for […], for acyclovir, and for MGBG. The ED values were determined.

[3] = system: foscarnet-resistant reference strain TP 2.5; assay: Antiviral susceptibility testing by ELISA on HEp-2 cells, strain TP 2.5; type: cell-based, HSV 1; conditions: median of at least three assays, drugs diluted in μM, read-out: Susceptibility of strain TP2.5 (concentration causing 50% inhibition of viral replication, IC50), median
Experimental: as §1, §2

[4] = system: HSV; assay: HSV replication in cellulo; type: cell-based; conditions: read-out: HSV inhibition in cellulo IC50
Experimental: as §1

[5] = target: T1, SAMDC (Rattus norvegicus, UniProt P17708); assay: SAMDC inhibition in vitro; type: biochemical; conditions: inhibitor at 0.1 μM
T1 construct: according to the procedure described in Pegg A E, Poso H, S-adenosylmethionine decarboxylase (rat liver), Methods Enzymol; 1983;94: 234-239; from tissue
T1 sequence (P17708 68-333 limits assumed): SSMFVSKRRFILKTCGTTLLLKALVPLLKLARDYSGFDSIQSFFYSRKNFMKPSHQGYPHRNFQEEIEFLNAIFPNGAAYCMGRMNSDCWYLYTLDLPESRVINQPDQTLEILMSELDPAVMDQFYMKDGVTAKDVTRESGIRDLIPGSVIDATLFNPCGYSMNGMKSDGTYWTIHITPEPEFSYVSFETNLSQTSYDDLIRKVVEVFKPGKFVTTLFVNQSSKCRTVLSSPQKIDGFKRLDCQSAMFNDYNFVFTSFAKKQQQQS
T1 sequence (P17708 1-67 limits assumed): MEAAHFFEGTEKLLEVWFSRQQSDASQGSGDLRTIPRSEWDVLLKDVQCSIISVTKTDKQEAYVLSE
Text: The results of SAMDC inhibition in vitro and of HSV replications in cellulo for MGBG and Compounds (I) to (III) disclosed above are reported in the table below.

[6] = system: HSV-1 macroplaque strain (MP); type: cell-based; conditions: 50 μM spermine added with 100 μM MGBG and virus, or 2 h later
Experimental: HEp2 cells were grown as monolayers in Eagle's minimum essential medium (E-MEM) supplemented or not with 5% heat-inactivated foetal calf serum (FCS) and supplemented with 100 U/ml penicillin and 100 U/ml streptomycin. The cells were maintained at 37° C. under 5% CO2. The HSV-1 macroplaque strain (MP), obtained from B. Jacquemont (Lyon, France), was a gift of B. Roizman (Chicago, Ill., U.S.A.), and was used throughout this study. Viruses were grown in HEp2 cells.
HEp2 cells were grown in 6-well plates (˜10^6 cells/well) and infected just before confluence with a multiplicity of infection (m.o.i.) of 0.5 plaque-forming units (PFU) per cell in E-MEM in absence of FCS, except for some experiments. After adsorption of the virus for 1 h at 33° C. under 5% CO2, the medium containing the virus suspension was removed and the cells were washed with E-MEM, then incubated in E-MEM without FCS at 37° C. for different periods of times until harvest. Times post-infection (p.i.) were calculated from the time of addition of the virus suspension. HEp2 cells were exposed to MGBG treatment for different times. When cells were pre-treated with MGBG prior infection, MGBG was added to cell medium 6 h or 24 h prior infection until harvest. In non pre-treated cells, MGBG was added simultaneously with virus suspension, or 2 h, 4 h or 6 h latter. When cells were treated for more than 24 h, medium was replaced every 24 h with fresh medium containing the same concentration of MGBG.
Accordingly, the effect of inactivation of enzymes involved in polyamine biosynthesis upon HSV-1 infection inhibition was assessed. The HSV-1 MP strain was used throughout this study for its ability to induce the formation of large syncytia from infected cells. Therefore, it was possible to easily and quickly investigate the inhibition of viral replication at the level of syncytia formation.
To investigate the effect of the concentration of MGBG on viral infection, HEp2 cells were infected with 0.5 PFU of HSV-1 per cell in FCS free medium in which 10 μM to 300 μM MGBG was added from the adsorption step of the virus until the end of the experiment. After 24 h of infection, the formation of syncytia was observed, and the number of syncytia was estimated by counting using the optical microscope.
HEp2 cell were pre-treated with MGBG by incubation in FCS free medium containing 10 to 300 μM MGBG 6h to 24 h before infection. Then cells were infected as described above and MGBG was maintained in the medium until the end of the experiment.

[7] = system: HSV-1 proteins, mRNA and DNA; assay: Levels of viral proteins (Western blot), mRNA and DNA (slot blot) in infected HEp2 cells; type: cell-based; conditions: 6 h pre-treatment with 100 μM MGBG, then MGBG and 50 μM spermine, 24 h p.i.
Experimental: Total RNA and DNA from control mock-infected and infected HEp2 cells were purified using Qiagen RNA/DNA kit. RNA were submitted to DNAse/RNAse free digestion (1.5 unit/μg RNA) and DNA were submitted to RNAse A digestion (10 units/μg). Quantitation of SAMDC mRNA, of viral mRNAs and viral DNA present in each sample was determined by slot blot analysis using the 1250 bp PstI/PvuII fragment of pSAMr1 plasmid (Pajunen et al., 1988). The 746 bp SalI-EcoNI fragment of pSG28 and the 1308 bp MluI fragment of pSG124 plasmids (Goldin et al., 1981) were labelled with [^32P] and used as probes to detect the immediate early ICP27 and the early UL42 mRNAs respectively. Us11 late mRNA was detected with [^32P]-labelled probe composed of the 230 bp XhoI fragment of pHSV-Us12 plasmid (Diaz et al., 1996). Viral DNA was detected using the ICP27 specific DNA probe.
Mock-infected and HSV-1-infected HEp2 cells were washed three times with ice cold phosphate-buffered saline (PBS) (130 mM NaCl, 4 mM Na2HPO4.2H2O, 1.5 mM KH2PO4), scrapped into PBS, and collected by centrifugation at 500×g. Cells were resuspended in Laemmli buffer (Laemmli, 1970). Proteins were resolved by polyacrylamide gel electrophoresis and transferred by electroblotting onto a polyvinylidene difluoride membrane (Immobilon-P; Millipore). Viral proteins were analysed by Western blots (10 μg aliquots) using a 50 fold dilution of either a rabbit polyclonal anti-ICP27 antibody, or a rabbit polyclonal anti-Us11 antibody (Diaz et al., 1993), or a mouse monoclonal anti-UL42 antibody diluted 50 fold.
Cells were pre-treated with 10 to 200 μM of MGBG, then infected with HSV-1 in the presence of the same concentrations of MGBG. Proteins, RNA and DNA were extracted from cells infected for 24 h. Viral proteins were detected by Western blot using specific antibodies, whereas viral mRNA and DNA levels were assayed by slot blot analysis.

Structure (SMILES)	IC50 [2] [µM]	IC50 [3] [µM]	IC50 [4] [µM]	% inhibition in vitro (0.1 μM) [5] [%]	other results
Nc1nc2c(ncn2COCCO)c(=O)[nH]1 [Acyclovir, acyclovir]	> 500	215	–	–	IC50 ([1]; HEp-2 cells, ELISA, median of at least three assays, drugs diluted in μM, read-out: Susceptibility of strain SC16 (concentration causing 50% inhibition of viral replication, IC50), median): 28 µM
N=C(N)c1ccc(/N=N/Nc2ccc(C(=N)N)cc2)cc1 [Compound (I), Berenil]	–	–	70	47	–
N=C(N)c1cccc2c1CC/C2=N\N=C(N)N [Compound (II), SAM486A]	–	–	47	97	–
CC(NNC(=N)N)c1cccc(C(=N)N)n1 (centres unmarked) [Compound (III)]	–	–	–	–	inhibition at 0.1 µM [5]: 97%
O=C(O)P(=O)(O)O [Foscarnet, foscarnet]	148	> 1000	–	–	IC50 ([1]; HEp-2, read-out: Susceptibility of strain SC16 (concentration causing 50% inhibition of viral replication, IC50), median): 224 µM; decreased IC50 on acyclovir-resistant strains versus acyclovir-susceptible strain ([2]; compared with SC16): 34%
NCCCNCCCCNCCCN [spermine]	–	–	–	–	MGBG inhibition of viral infection on addition of exogenous spermine [6]: totally prevented; MGBG-induced viral inhibition in the presence of exogenous spermine [7]: abolished the MGBG-induced viral inhibition
